Data on eight molecules can be found in PubChem BioAssay (NCI).

Among the test systems are SF-539 CNS; OVCAR-5 ovarian; BT-549 breast; MCF7 breast; A498 renal; LOX IMVI melanoma; HOP-62 NSCLC; DU-145 prostate; NCI/ADR-RES ovarian; HS 578T breast; NCI-H522 lung; MDA-N; HOP-18 NSCLC; SNB-78 CNS; HCT-116 colon.
Assay in all cases: NCI tumour cell line growth inhibition, 48 h

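Exposure lasted 48 hours, with cells grown in 96-well plates and compounds tested at five concentrations. At the GI50, growth is halved. The concentration for full growth arrest is given as TGI.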 Where only a bound is given, the exact number is not on record here.

Regarding `N=c1c2c(=S)n(-c3ccccc3)c(=S)n(-c3ccccc3)c2nc(SCCCN2CCN(c3cccc(Cl)c3)CC2)n1-c1ccccc1`, the TGI in the assay with SF-539 CNS, in the assay with OVCAR-5 ovarian, with BT-549 breast, in the assay on MCF7 breast, in the assay with A498 renal and with LOX IMVI melanoma was above 100 µM throughout. Further, the TGI with HOP-62 NSCLC, in the assay with DU-145 prostate, with NCI/ADR-RES ovarian, in the assay with HS 578T breast and in the assay on NCI-H522 lung was above 100 µM each time.

In the case of `Cc1cc(C)c2c(c1)CC1(Cc3c(C)ccc(C)c3C1=O)C2=O` (stereo not given), the TGI in the assay with SF-539 CNS, with OVCAR-5 ovarian, in the assay on BT-549 breast, in the assay on MCF7 breast, in the assay with MDA-N and in the assay on A498 renal was above 100 µM each time. For the same molecule, the TGI in the assay with DU-145 prostate, with NCI/ADR-RES ovarian, in the assay on HS 578T breast and in the assay on NCI-H522 lung was above 100 µM in each case.

`CCNc1nnc(-c2nsc3ccccc23)s1`: the TGI was above 100 µM with SF-539 CNS; above 100 µM in the assay on OVCAR-5 ovarian; 91.6 µM in the assay with HOP-18 NSCLC; above 100 µM with SNB-78 CNS; above 100 µM in the assay with LOX IMVI melanoma; above 100 µM in the assay with HOP-62 NSCLC. Besides, the TGI in the assay with HCT-116 colon turned out to be 75.2 µM.

Consider `Cc1ccc([N+](=O)[O-])cc1S(=O)(=O)Nc1ccc(C2=NNC(c3ccccc3O)C2)cc1` (stereo not given), for which the TGI in the assay on SF-539 CNS was above 100 µM; with OVCAR-5 ovarian, above 100 µM; in the assay with BT-549 breast, 63.5 µM; with MCF7 breast, 64.7 µM; in the assay on MDA-N, 93.5 µM; in the assay with A498 renal it was 79.3 µM. The TGI in the assay with LOX IMVI melanoma is above 100 µM; in the assay with HOP-62 NSCLC, 57.7 µM; in the assay on DU-145 prostate it was above 100 µM; in the assay with NCI/ADR-RES ovarian it was 81 µM; in the assay on HS 578T breast, above 100 µM; in the assay with NCI-H522 lung, above 100 µM. Also, the TGI with HCT-116 colon turned out to be 60.8 µM.

For `CC(=O)Oc1ccc2c(c1)oc1c3ccc(OC(C)=O)cc3n(C)c(=O)c21`, the TGI with SF-539 CNS, with OVCAR-5 ovarian, in the assay on BT-549 breast, in the assay on MCF7 breast, in the assay with MDA-N and in the assay with HOP-62 NSCLC was above 100 µM throughout. For the same molecule, the TGI was above 100 µM in the assay on DU-145 prostate, 51.7 µM in the assay with NCI/ADR-RES ovarian, above 100 µM in the assay with HS 578T breast and 48.7 µM in the assay with HCT-116 colon.

Take `C=C1C(=O)C[C@@]23CCC[C@@]12CC(OCOC)C3` (stereo not given in full): the TGI was determined as 9.5 µM with SF-539 CNS; 8.26 µM with OVCAR-5 ovarian; 3.74 µM in the assay with MCF7 breast; 11.5 µM in the assay with HOP-18 NSCLC; 22.5 µM in the assay on SNB-78 CNS; 18.4 µM in the assay with A498 renal. Further, the TGI was found to be 3.87 µM with LOX IMVI melanoma; 25.9 µM in the assay on HOP-62 NSCLC; 9.5 µM with NCI/ADR-RES ovarian; 0.675 µM with NCI-H522 lung; 6 µM in the assay on HCT-116 colon.

On to `O=C1C=CC2=[N+]([O-])C(c3ccccc3)(c3ccccc3)C(=Nc3ccccc3)C2=C1`, for which the TGI in the assay on SF-539 CNS was determined as 19.5 µM; in the assay with OVCAR-5 ovarian it was 30 µM; in the assay with HOP-18 NSCLC, 7.52 µM; in the assay on SNB-78 CNS, 15.6 µM; in the assay on LOX IMVI melanoma it was 3.74 µM; in the assay with HOP-62 NSCLC it was 29.3 µM. Also, the results for the TGI in the assay on NCI-H522 lung and in the assay with HCT-116 colon were 3.02 µM and 3.92 µM, respectively.

Take `N=C(N)c1ccc(-c2ccc(-c3ccccc3)s2)cc1`: the GI50 in the assay on SF-539 CNS is 1.63 µM; with OVCAR-5 ovarian, 1.59 µM; in the assay on BT-549 breast, 3.22 µM; in the assay on DU-145 prostate, 1.75 µM; in the assay on HS 578T breast, 1.94 µM. The TGI with SF-539 CNS worked out at 3 µM; with OVCAR-5 ovarian, 2.94 µM; in the assay on BT-549 breast, 19.9 µM; in the assay on DU-145 prostate it was 3.17 µM; in the assay with HS 578T breast, 5.04 µM.
